How the values were obtained:
[1] = tested on: metallothionein (MT) mRNA; experiment: Bioavailability of different zinc compositions in chickens, MT mRNA in jejunum mucosal scrapings by QRT-PCR; assay type: in vivo, chicken; conditions: 70 ppm zinc in corn-soy diet for 2 days (day 21 to 23); six birds per treatment; 18S-normalized; P≦0.05
Description: Chickens were fed a low zinc pre-feed diet for 20 days. On day 21, they were switched to a corn-soy diet supplemented with one of the following: 1) unsupplemented for zinc (control); 2) 70 ppm zinc from ZnOxide; 3) 70 ppm zinc from a zinc amino acid complex (Zn AAC); 4) 70 ppm zinc from Zn(HMTBA)2. On day 23, six birds from each treatment were weighed, sacrificed, and jejunum samples were collected. The lumen was rinsed with 3-4 ml of cold saline, the jejunum was cut open lengthwise, and the mucosal surface was scraped with a glass slide. Cell scrapings were collected into 0.9 ml of RNAlater. RNA was isolated as described in Example 1. QRT-PCR was performed as described in Example 1, and 18S-normalized MT mRNA expression was determined.

[2] = tested on: metallothionein (MT) mRNA; experiment: Time course of zinc-induced expression of metallothionein in chicken jejunum, QRT-PCR; assay type: in vivo
Excerpt: A total of 54 chickens were fed a low zinc/low copper milo starter diet for 10 days. On day 11 (t=Day 0), the birds were split into two groups: 18 were fed a corn-soy diet supplemented with 25 ppm copper oxide and no zinc (“Cu”) and 36 were fed a corn-soy diet supplemented with 25 ppm copper oxide and 70 ppm zinc from Zn(HMTBA)2 (“Cu+Zn(HMTBA)2”). On days 13 (t=Day 2), 16 (t=Day 5) and 19 (t=Day 8), three “Cu” and three “Cu+Zn(HMTBA)2” birds per day were weighed and sacrificed. The mid-jejunum was collected from each bird. The lumen was rinsed with 3-4 ml of cold saline, and each sample was divided into two pieces, with each piece being no larger than 0.5 cm in any direction. The two pieces from each bird were placed in separate microcentrifuge tubes containing 0.9 ml of RNAlater solution.
RNA was isolated (RNA from the two pieces from each bird were pooled), and 18S-normalized MT mRNA expression levels were measured by QRT-PCR as described in Example 1. The data are expressed as MT mRNA expression relative to the low zinc jejunum reference sample from Example 1.

[3] = tested on: metallothionein (MT) mRNA; experiment: Induction of metallothionein (MT) mRNA by zinc in chicken tissues, QRT-PCR; assay type: in vivo; conditions: high zinc diet (34 ppm basal + 64 ppm zinc from Zn(HMTBA)2) vs low zinc diet (34 ppm); day 29; normalized to 18S rRNA; one bird per group
Excerpt: Zinc treatment and sample collection. Upon hatching, chicks were placed on a moderately Zn-deficient starter diet. On day 13, they were switched to two different test diets: some were fed a low zinc diet with no zinc supplements (the diet contained 34 ppm zinc in the basal feedstuffs) and the rest were fed a high zinc diet comprising 34 ppm zinc in the feedstuffs and 64 ppm zinc from Zn(HMTBA)2 for a total of 98 ppm zinc. On day 29, a chicken from each group was sacrificed and the following tissues were collected: jejunum (small intestine), jejunum mucosal scrapings, liver, and kidney. The lumen of a 2-3 inch long jejunum section was rinsed with 3-4 ml of cold saline. The jejunum was cut open lengthwise and placed mucosa-side up on a clean cutting board. One piece of jejunum, no greater than 0.5 cm in any direction, was placed into a microcentrifuge tube containing 0.9 ml of RNAlater solution, and stored according to the manufacturer's instructions (Ambion, Austin Tex.). The jejunum section's remaining mucosal surface was scraped with a glass slide. Cell scrapings were collected and placed into 0.9 ml RNAlater. The other tissues were stored in RNAlater. RNA was isolated using the High Pure RNATissue Prep Kit (Roche Applied Science, Cat No 12033674001) following the manufacturer's instructions. The concentration of RNA was determined using a spectrophotometer, and the concentration of RNA was adjusted to a maximum of 0.5 mg/ml by dilution with elution buffer. The RNA samples were either used immediately, or frozen on dry ice and stored at −80° C. until use.
Reverse Transcriptase and Quantitative PCR. First strand cDNA synthesis was performed using the Transcriptor Reverse Transcriptase® (Roche Applied Science, Indianapolis, Ind., catalog #04379012001), using the instructions supplied by the manufacturer. Each first-strand synthesis reaction contained 0.5 μg of total RNA. The reverse transcription was performed in a thermocycler using the following program: a brief, 90 sec denaturation step at 65° C.; annealing for 30 sec at 40° C.; 30 min cDNA synthesis at 55° C.; and enzyme inactivation by 5 min denaturation at 85° C. The reaction product was concentrated by ethanol precipitation, rinsed and dried. The sample was then resuspended in 400 μl of nuclease-free water and A260/A280 was measured to ensure that cDNA concentration in each sample would fall within the range of concentration usable by the QRT-PCR assay.
MT mRNA and 18S rRNA levels were measured by QRT-PCR on a Roche LightCycler®, using the LightCycler® FastStart DNA Master HybProbe Kit (Roche Molecular Systems, Inc, Alameda, Calif., catalog #300324) using 0.5 μM of each primer and 0.2 μM of each TaqMan probe, as shown in Table 1. […]

SMILES	levels of MT mRNA induced in jejunum mucosal scrapings [1]	MT mRNA expression in jejunum, overall effect of treatment ([2]; 70 ppm zinc from Zn(HMTBA)2 + 25 ppm copper oxide vs 25 ppm copper oxide only, days 2, 5, 8, P=0.0077)	MT mRNA expression in jejunum, difference between treatments by day ([2]; Cu+Zn(HMTBA)2 vs Cu diet, three birds per treatment per day, days 2, 5 and 8)	fold induction of MT mRNA in jejunum [3]	fold induction of MT mRNA in jejunum mucosal scrapings [3]	fold induction of MT mRNA in kidney [3]	fold induction of MT mRNA in liver [3]
CSCCC(O)C(=O)[O-].CSCCC(O)C(=O)[O-].[Zn+2] (centres unmarked) [Zn(HMTBA)2]	significantly greater than those induced by ZnOxide or the Zn AAC	increased MT expression	Significant differences in MT expression are seen between treatments on days 5 and 8	34 fold	125 fold	9 fold	19 fold
[O-2].[Zn+2] [ZnOxide, zinc oxide, reference compound]	not significantly greater than MT expression in the unsupplemented birds	–	–	–	–	–	–

Source: patent publication US20080090297A1, “Methods for determining the metal bioavailability of metal sources” (Novus International Inc., priority 2006, published 2008)
